Experiments:
Format in all cases: in vivo
[1] = system: Abutilon theophrasti (ABUTH); experiment: Test 1 glasshouse assay, pre-emergence herbicidal activity; conditions: 312 h, visual evaluation after 13 days, read-out: Percentage phytotoxicity ABUTH
Outline: (§1)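 Steps: sow seeds in standard soil; after one day in the glasshouse, spray aqueous solution of technical compound (acetone/water 50:50, 0.5% Tween 20); grow on at 24/16° C with 14 h light and twice-daily watering; score phytotoxicity visually at 13 days.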

[2] = system: Alopecurus myosuroides (ALOMY); experiment: as above; conditions: 312 h, visual evaluation after 13 days, read-out: Percentage phytotoxicity ALOMY
Outline: as §1

[3] = system: Amaranthus retroflexus (AMARE); experiment: as above; conditions: 312 h, visual evaluation after 13 days, read-out: Percentage phytotoxicity AMARE
Outline: as §1

Setaria faberi (SETFA) = experiment: as above; conditions: 312 h, visual evaluation after 13 days, read-out: Percentage phytotoxicity SETFA
Outline: as §1

[4] = system: Zea mays (ZEAMX, corn/maize); experiment: as above; conditions: 312 h, visual evaluation after 13 days, read-out: Percentage phytotoxicity ZEAMX
Outline: as §1

[5] = system: Alopecurus myosuroides (ALOMY); experiment: Test 1 glasshouse assay, post-emergence herbicidal activity; conditions: 312 h, post-emergence (Example 1B Table 1), after 13 days, read-out: Percentage phytotoxicity ALOMY
Outline: (§2)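 Plants sprayed 8 days after sowing with active ingredient in acetone/water (50:50) containing 0.5% Tween 20, grown in glasshouse at 24/16°C day/night, 14 h light, 65% humidity. Phytotoxicity scored visually after 13 days as percentage damage (100% = total damage; 0% = none).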

[6] = system: Echinochloa crus-galli (ECHCG); experiment: as above; conditions: 312 h, post-emergence (Example 1B Table 1), after 13 days, read-out: Percentage phytotoxicity ECHCG
Outline: as §2

Lolium perenne (LOLPE) = experiment: Test 2 glasshouse assay (IF50 formulation, X-77), pre-emergence herbicidal activity; conditions: 480 h, 250 g/ha, 20DAA, read-out: Percentage phytotoxicity LOLPE
Outline: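 Plants in soil pots were sprayed 1 day (pre-emergence) or ~12 days (post-emergence) after sowing with IF50 formulation diluted in 0.2% v/v X-77. Cool species were grown at 20/16 °C day/night, 16 h light, 65% humidity. Visual % phytotoxicity was scored at 20DAA (pre) or 15DAA (post).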

[7] = system: Beta vulgaris (BEAVA, sugarbeet); experiment: Test 2 glasshouse assay (IF50 formulation, X-77), post-emergence herbicidal activity; conditions: 360 h, 15 DAA, visual score, read-out: Post-emergence herbicidal activity (percentage phytotoxicity) BEAVA
Outline: (§3)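 Plants grown ~12 days (range 10-13) in glasshouse (cool species 20/16° C., warm 24/18° C. day/night; 16 h light; 65% humidity), then sprayed post-emergence with IF50 formulation in aqueous 0.2% v/v X-77. Visual percentage phytotoxicity scored 15 days after application (100% = total damage, 0% = none).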

[8] = system: Brassica napus (BRSNN, rape); experiment: as above; conditions: 360 h, 15 DAA, visual score, read-out: Post-emergence herbicidal activity (percentage phytotoxicity) BRSNN
Outline: as §3

[9] = system: Glycine max (GLXMA, soybean); experiment: as above; conditions: 360 h, 15 DAA, visual score, read-out: Post-emergence herbicidal activity (percentage phytotoxicity) GLXMA
Outline: as §3

[10] = system: Triticum aestivum (TRZAW, winter wheat); experiment: as above; conditions: 360 h, 15 DAA, visual score, read-out: Post-emergence herbicidal activity (percentage phytotoxicity) TRZAW
Outline: as §3

`C#CCC1CC(=O)C(c2c(F)cc(-c3ccc(F)c(F)c3)cc2OC)C1=O` (stereo not drawn) [Compound A22] gave a pest or weed control at 250 g/ha [1] of 0%, a pest or weed control at 250 g/ha [2] of 80% and a pest or weed control at 250 g/ha [3] of 30%. The pest or weed control at 250 g/ha (Setaria faberi (SETFA)) was 90%, the pest or weed control at 250 g/ha [4] was 100% and the pest or weed control at 30 g/ha ([5]; 30 g/ha) was 70%. For the same molecule, the pest or weed control at 250 g/ha ([5]; 250 g/ha) was 100%, the pest or weed control at 30 g/ha ([6]; 30 g/ha) was 90% and the pest or weed control at 250 g/ha ([6]; 250 g/ha) was 100%. It also gave a pest or weed control at 250 g/ha (Lolium perenne (LOLPE)) of 20%, a plant injury at 30 g/ha ([7]; application rate 30 g/ha) of 0% and a plant injury at 125 g/ha ([7]; application rate 125 g/ha) of 0%. The plant injury at 30 g/ha ([8]; application rate 30 g/ha) was 50%, the plant injury at 125 g/ha ([8]; application rate 125 g/ha) was 70% and the plant injury at 30 g/ha ([9]; application rate 30 g/ha) was 0%. The plant injury at 125 g/ha ([9]; application rate 125 g/ha) was 40%, the plant injury at 30 g/ha ([10]; application rate 30 g/ha) was 20% and the plant injury at 125 g/ha ([10]; application rate 125 g/ha) was 70%.
